Assay results as given in patent US9303012B2, “Pyridine-2-amides useful as CB2 agonists” (Hoffmann-La Roche Inc., priority 2012, dated 2016).

How the values were obtained:
human CB2 receptors = human CB2 receptors (Homo sapiens (Human), UniProt P34972); test: functional cAMP assay, CHO cells expressing human CB2 receptors; type: cell-based
Method: (§1) CHO cells expressing human CB1 or CB2 receptors are seeded 17-24 hours prior to the experiment 50.000 cells per well in a black 96 well plate with flat clear bottom (Corning Costar #3904) in DMEM (Invitrogen No. 31331), 1×HT supplement, with 10% fetal calf serum and incubated at 5% CO2 and 37° C. in a humidified incubator. The growth medium was exchanged with Krebs Ringer Bicarbonate buffer with 1 mM IBMX and incubated at 30° C. for 30 min. Compounds were added to a final assay volume of 100 μl and incubated for 30 min at 30° C. Using the cAMP-Nano-TRF detection kit the assay (Roche Diagnostics) was stopped by the addition of 50 μl lysis reagent (Tris, NaCl, 1.5% Triton X100, 2.5% NP40, 10% NaN3) and 50 μl detection solutions (20 μM mAb Alexa700-cAMP 1:1, and 48 μM Ruthenium-2-AHA-cAMP) and shaken for 2 h at room temperature. The time-resolved energy transfer is measured by a TRF reader (Evotec Technologies GmbH), equipped with a ND:YAG laser as excitation source. The plate is measured twice with the excitation at 355 nm and at the emission with a delay of 100 ns and a gate of 100 ns, total exposure time 10 s at 730 (bandwidth 30 nm) or 645 nm (bandwidth 75 nm), respectively. The FRET signal is calculated as follows: FRET=T730-Alexa730-P(T645-B645) with P=Ru730-B730/Ru645-B645, where T730 is the test well measured at 730 nM, T645 is the test well measured at 645 nm, B730 and B645 are the buffer controls at 730 nm and 645 nm, respectively. cAMP content is determined from the function of a standard curve spanning from 10 μM to 0.13 nM cAMP.
(§2) EC50 values were determined using Activity Base analysis (ID Business Solution, Limited). The EC50 values for a wide range of cannabinoid agonists generated from this assay were in agreement with the values published in the scientific literature.

human CB1 receptors = human CB1 receptors (Homo sapiens (Human), UniProt P21554); test: functional cAMP assay, CHO cells expressing human CB1 receptors; type: cell-based
Method: as §1, §2

human CB1 receptors, sequence (P21554 whole entry): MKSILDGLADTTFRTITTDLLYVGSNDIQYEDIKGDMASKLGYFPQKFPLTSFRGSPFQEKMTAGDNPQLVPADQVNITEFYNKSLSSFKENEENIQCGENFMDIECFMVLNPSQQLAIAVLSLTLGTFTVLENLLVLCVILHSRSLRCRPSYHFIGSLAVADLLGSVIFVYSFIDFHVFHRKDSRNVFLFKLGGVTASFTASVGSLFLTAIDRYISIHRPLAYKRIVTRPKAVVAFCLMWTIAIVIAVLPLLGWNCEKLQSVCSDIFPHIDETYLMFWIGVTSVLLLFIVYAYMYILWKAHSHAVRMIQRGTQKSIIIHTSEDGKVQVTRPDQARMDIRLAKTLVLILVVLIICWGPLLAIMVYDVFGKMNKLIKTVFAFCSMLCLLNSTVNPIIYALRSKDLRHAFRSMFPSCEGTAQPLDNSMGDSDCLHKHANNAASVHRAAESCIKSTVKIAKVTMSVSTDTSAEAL
human CB2 receptors, sequence (P34972 whole entry): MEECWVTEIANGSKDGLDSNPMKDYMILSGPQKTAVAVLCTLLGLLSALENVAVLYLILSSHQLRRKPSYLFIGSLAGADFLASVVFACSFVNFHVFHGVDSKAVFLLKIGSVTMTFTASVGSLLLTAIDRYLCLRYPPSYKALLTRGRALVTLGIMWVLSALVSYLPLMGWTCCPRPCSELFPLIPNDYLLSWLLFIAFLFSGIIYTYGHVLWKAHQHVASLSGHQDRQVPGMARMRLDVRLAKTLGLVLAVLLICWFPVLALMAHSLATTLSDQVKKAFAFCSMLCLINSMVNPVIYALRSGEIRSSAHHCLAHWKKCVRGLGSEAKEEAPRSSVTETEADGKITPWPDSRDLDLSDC

Structure (SMILES) | EC50 (human CB2 receptors) [nM] | EC50 (human CB1 receptors) [nM]
O=C(c1ccc(C2CC2)c(OCC2CC2)n1)N1CCC(CO)(C(F)(F)F)C1 (centres unmarked) [Example 142, [5-Cyclopropyl-6-(cyclopropylmethoxy)pyridin-2-yl]-[3-(hydroxymethyl)-3-(trifluoromethyl)pyrrolidin-1-yl]methanone] | 26.3 | > 10000
CC1(F)CN(C(=O)c2ccc(N3CC(F)(F)C3)c(OCC3CC3)n2)C1 [Example 149, [6-(Cyclopropylmethoxy)-5-(3,3-difluoroazetidin-1-yl)-2-pyridyl]-(3-fluoro-3-methyl-azetidin-1-yl)methanone] | 79 | > 10000
NC(=O)[C@@H]1CC(F)(F)CN1C(=O)c1ccc(N2CC(F)(F)C2)c(OCC2CC2)n1 [Example 60, (S)-1-[6-Cyclopropylmethoxy-5-(3,3-difluoro-azetidin-1-yl)-pyridine-2-carbonyl]-4,4-difluoro-pyrrolidine-2-carboxylic acid amide] | 3.08 | > 10000
NC(=O)[C@@H]1CCCCN1C(=O)c1ccc(C2CC2)c(OCC2CC2)n1 [Example 92, (−)-1-(5-Cyclopropyl-6-cyclopropylmethoxy-pyridine-2-carbonyl)-piperidine-2-carboxylic acid amide] | 101 | > 10000
NC(=O)[C@@H]1C[C@@H](F)CN1C(=O)c1ccc(C2CC2)c(OCC2CC2)n1 [Example 123, (2S,4R)-1-[5-Cyclopropyl-6-(cyclopropylmethoxy)pyridine-2-carbonyl]-4-fluoropyrrolidine-2-carboxamide] | 58.4 | > 10000
COCCN(C(=O)c1ccc(N2CC(F)(F)C2)c(OCC2CC2)n1)C(C)(C)CO [Example 19, 6-Cyclopropylmethoxy-5-(3,3-difluoro-azetidin-1-yl)-pyridine-2-carboxylic acid (2-hydroxy-1,1-dimethyl-ethyl)-(2-methoxy-ethyl)-amide] | 856 | > 10000
NC(=O)C1CCCN1C(=O)c1ccc(N2CC(F)(F)C2)c(OCC2CC2)n1 (centres unmarked) [Example 114, 1-[6-Cyclopropylmethoxy-5-(3,3-difluoro-azetidin-1-yl)-pyridine-2-carbonyl]-pyrrolidine-2-carboxylic acid amide] | 473 | > 10000
CC(=O)NC1CCN(C(=O)c2ccc(N3CC(F)(F)C3)c(OCC3CC3)n2)C1 (centres unmarked) [Example 41, N-{1-[6-Cyclopropylmethoxy-5-(3,3-difluoro-azetidin-1-yl)-pyridine-2-carbonyl]-pyrrolidin-3-yl}-acetamide] | 966 | > 10000
CC1(C)CCCN1C(=O)c1ccc(N2CC(F)(F)C2)c(OCC2CC2)n1 [Example 18, [6-Cyclopropylmethoxy-5-(3,3-difluoro-azetidin-1-yl)-pyridin-2-yl]-(2,2-dimethyl-pyrrolidin-1-yl)-methanone] | 0.6 | > 10000
NC(=O)C1CSCN1C(=O)c1ccc(C2CC2)c(OCC2CC2)n1 (centres unmarked) [Example 96, 3-(5-Cyclopropyl-6-cyclopropylmethoxy-pyridine-2-carbonyl)-thiazolidine-4-carboxylic acid amide] | 103 | > 10000
O=C(c1ccc(N2CC(F)(F)C2)c(OCC2CC2)n1)N1CCC12COC2 [Example 10, [6-Cyclopropylmethoxy-5-(3,3-difluoro-azetidin-1-yl)-pyridin-2-yl]-(6-oxa-1-aza-spiro[3.3]hept-1-yl)-methanone] | 662 | > 10000
CC1(C)CC[C@@H](C(N)=O)N1C(=O)c1ccc(N2CC(F)(F)C2)c(OCC2CC2)n1 [Example 121, (S)-1-[6-Cyclopropylmethoxy-5-(3,3-difluoro-azetidin-1-yl)-pyridine-2-carbonyl]-5,5-dimethyl-pyrrolidine-2-carboxylic acid amide] | 112 | > 10000
CN(C(=O)c1ccc(C2CC2)c(OCC2CC2)n1)C(C)(C)C [Example 3, 5-Cyclopropyl-6-cyclopropylmethoxy-pyridine-2-carboxylic acid tert-butyl-methyl-amide] | 7.2 | > 10000
